Results as given in ChEMBL document CHEMBL1201862, “PubChem BioAssay data set” (2004).
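Step 1: Grow cells in 96-well plates. Step 2: Expose to compound for 48 hours at 5 concentrations. Step 3: Interpolate endpoints linearly; if unreached, use highest concentration. GI50: concentration for 50% inhibition of growth.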 The source made the active and inactive calls. Cut-off read from the data, not from the text of the source: active = GI50 up to about 1.1 µM and inactive = higher. Where a SMILES comes first, the peptide text is derived from it. [ ]: non-standard residue; d: D form. The star is where a group is joined. Phe(4-NO2) = N[CH](Cc1ccc([N+](=O)[O-])cc1)C(=O)O; Cbz = O=C(OCc1ccccc1)*

Experiments:
Experiment in all cases: inhibition of tumour cell growth, NCI panel, 48 h
CCRF-CEM = system: CCRF-CEM
COLO 205 = system: COLO 205
DU-145 = system: DU-145
EKVX = system: EKVX
HCC 2998 = system: HCC 2998
MCF7 = system: MCF7
NCI-H226 = system: NCI-H226
NCI-H460 = system: NCI-H460
NCI-H522 = system: NCI-H522
OVCAR-4 = system: OVCAR-4
PC-3 = system: PC-3
RXF 393 = system: RXF 393
SF-539 = system: SF-539
SW-620 = system: SW-620
T47D = system: T47D
TK-10 = system: TK-10
U-251 = system: U-251
UACC-62 = system: UACC-62
SK-MEL-5 = system: SK-MEL-5

| SMILES | GI50 (CCRF-CEM) | GI50 (COLO 205) | GI50 (DU-145) | GI50 (EKVX) | GI50 (HCC 2998) | GI50 (MCF7) | GI50 (NCI-H226) | GI50 (NCI-H460) | GI50 (NCI-H522) | GI50 (OVCAR-4) | GI50 (PC-3) | GI50 (RXF 393) | GI50 (SF-539) | GI50 (SW-620) | GI50 (T47D) | GI50 (TK-10) | GI50 (U-251) | GI50 (UACC-62) | GI50 (SK-MEL-5) |
| --- | --- | --- | --- | --- | --- | --- | --- | --- | --- | --- | --- | --- | --- | --- | --- | --- | --- | --- | --- |
| O=CN1CCN(C(=O)c2ccc(Cl)cc2Cl)C1=S | 27.5 µM (inactive) | > 100 µM (inactive) | 84.5 µM (inactive) | > 100 µM (inactive) | > 100 µM (inactive) | 34.6 µM (inactive) | > 100 µM (inactive) | > 100 µM (inactive) | 20.3 µM (inactive) | > 100 µM (inactive) | > 100 µM (inactive) | 29.3 µM (inactive) | > 100 µM (inactive) | 77.8 µM (inactive) | 32.4 µM (inactive) | 78.7 µM (inactive) | > 100 µM (inactive) | > 100 µM (inactive) | – |
| CCOC(=O)CCC(NC(=O)OCc1ccccc1)C(=O)NC(CCC(=O)OCC)C(=O)NC(Cc1ccc([N+](=O)[O-])cc1)C(=O)NC(CCC(=O)OCC)C(=O)NC(CCC(=O)OCC)C(=O)OCC (stereo not given) (Cbz-E(OEt)E(OEt)[Phe(4-NO2)]E(OEt)E(OEt)-OEt; configuration not given here) | > 100 µM (inactive) | > 100 µM (inactive) | > 100 µM (inactive) | > 100 µM (inactive) | – | > 100 µM (inactive) | – | > 100 µM (inactive) | > 100 µM (inactive) | > 100 µM (inactive) | > 100 µM (inactive) | > 100 µM (inactive) | – | > 100 µM (inactive) | > 100 µM (inactive) | > 100 µM (inactive) | > 100 µM (inactive) | > 100 µM (inactive) | > 100 µM (inactive) |
| Cc1ccc(/C(C#N)=C/c2cccc([N+](=O)[O-])c2)cc1 | – | > 100 µM (inactive) | 98.6 µM (inactive) | 29.5 µM (inactive) | > 100 µM (inactive) | > 100 µM (inactive) | > 100 µM (inactive) | > 100 µM (inactive) | > 100 µM (inactive) | 57.8 µM (inactive) | > 100 µM (inactive) | 19.3 µM (inactive) | 46.5 µM (inactive) | > 100 µM (inactive) | > 100 µM (inactive) | 92.5 µM (inactive) | 46.7 µM (inactive) | 71.1 µM (inactive) | > 100 µM (inactive) |
| CCOC(=O)C1=C(C)N(c2ccc(Cl)cc2)C2(O)C=CC(=O)C3C(=O)N(c4ccccc4)C(=O)C132 (stereo not given) | 0.476 µM (active) | 1.67 µM (inactive) | 1.87 µM (inactive) | 1.91 µM (inactive) | – | 1.62 µM (inactive) | – | 2.3 µM (inactive) | 1.1 µM (active) | 1.54 µM (inactive) | 1.5 µM (inactive) | 1.76 µM (inactive) | 2.27 µM (inactive) | 1.54 µM (inactive) | 2.3 µM (inactive) | 1.8 µM (inactive) | 1.87 µM (inactive) | 1.59 µM (inactive) | 1.6 µM (inactive) |
| COC(=O)c1c(OC)cc2cc3c(c(O)c2c1C)C(=O)C1(O)C(=O)C=C(OC)C(OC(=O)CC(C)N)=C1C3=O (stereo not given) | 4.74 µM (inactive) | > 100 µM (inactive) | 11.6 µM (inactive) | 20 µM (inactive) | 6.68 µM (inactive) | 15.6 µM (inactive) | – | 7.05 µM (inactive) | 12.1 µM (inactive) | 18.3 µM (inactive) | 20.9 µM (inactive) | – | 8.59 µM (inactive) | 37.7 µM (inactive) | 20.9 µM (inactive) | 22.1 µM (inactive) | 33.5 µM (inactive) | 17.1 µM (inactive) | 26.9 µM (inactive) |
| Cc1ccc(S(=O)(=O)n2ccc(-c3ccc4ccn(S(=O)(=O)c5ccc(C)cc5)c4c3)c2)cc1 | > 100 µM (inactive) | > 100 µM (inactive) | > 100 µM (inactive) | > 100 µM (inactive) | > 100 µM (inactive) | > 100 µM (inactive) | > 100 µM (inactive) | – | > 100 µM (inactive) | > 100 µM (inactive) | > 100 µM (inactive) | 12.9 µM (inactive) | > 100 µM (inactive) | > 100 µM (inactive) | > 100 µM (inactive) | > 100 µM (inactive) | > 100 µM (inactive) | > 100 µM (inactive) | > 100 µM (inactive) |
| CC(C)(C)NCC(O)c1ccc(O)c(CO)n1 (stereo not given) | – | > 100 µM (inactive) | > 100 µM (inactive) | > 100 µM (inactive) | > 100 µM (inactive) | > 100 µM (inactive) | > 100 µM (inactive) | > 100 µM (inactive) | > 100 µM (inactive) | > 100 µM (inactive) | > 100 µM (inactive) | > 100 µM (inactive) | > 100 µM (inactive) | > 100 µM (inactive) | > 100 µM (inactive) | > 100 µM (inactive) | > 100 µM (inactive) | > 100 µM (inactive) | > 100 µM (inactive) |
| CC1C(c2ccc3c(c2)OCO3)c2cc3c(cc2OC1N1CCCC1)OCO3 (stereo not given) | 26.4 µM (inactive) | 31.6 µM (inactive) | 34.1 µM (inactive) | 37.9 µM (inactive) | 17.8 µM (inactive) | 33.1 µM (inactive) | – | 34.4 µM (inactive) | 18 µM (inactive) | – | 32.9 µM (inactive) | – | 16.1 µM (inactive) | 32.5 µM (inactive) | 35.4 µM (inactive) | 24.9 µM (inactive) | – | 53.6 µM (inactive) | 17.7 µM (inactive) |
| CCCCCCOP(=O)(OCCCCCC)OC(C(=O)OC)C(F)(F)F (stereo not given) | > 100 µM (inactive) | > 100 µM (inactive) | > 100 µM (inactive) | > 100 µM (inactive) | > 100 µM (inactive) | > 100 µM (inactive) | > 100 µM (inactive) | – | > 100 µM (inactive) | > 100 µM (inactive) | > 100 µM (inactive) | – | > 100 µM (inactive) | > 100 µM (inactive) | > 100 µM (inactive) | > 100 µM (inactive) | > 100 µM (inactive) | > 100 µM (inactive) | > 100 µM (inactive) |
| O=C1CC(=O)NC(NN2C(=O)CSC2C(=O)c2ccco2)=N1 (stereo not given) | > 100 µM (inactive) | > 100 µM (inactive) | > 100 µM (inactive) | – | > 100 µM (inactive) | > 100 µM (inactive) | > 100 µM (inactive) | > 100 µM (inactive) | > 100 µM (inactive) | > 100 µM (inactive) | > 100 µM (inactive) | > 100 µM (inactive) | > 100 µM (inactive) | > 100 µM (inactive) | > 100 µM (inactive) | > 100 µM (inactive) | > 100 µM (inactive) | > 100 µM (inactive) | > 100 µM (inactive) |
| COc1cc(C(=O)O)c([N+](=O)[O-])c(OC)c1OC | – | > 100 µM (inactive) | > 100 µM (inactive) | > 100 µM (inactive) | > 100 µM (inactive) | > 100 µM (inactive) | > 100 µM (inactive) | > 100 µM (inactive) | > 100 µM (inactive) | > 100 µM (inactive) | > 100 µM (inactive) | > 100 µM (inactive) | > 100 µM (inactive) | > 100 µM (inactive) | > 100 µM (inactive) | > 100 µM (inactive) | > 100 µM (inactive) | > 100 µM (inactive) | > 100 µM (inactive) |
| C=C(C)[C@@]1(O)CCCC[C@@H]1CC(Sc1ccccc1)Sc1ccccc1 | 23.4 µM (inactive) | 16.4 µM (inactive) | 15.7 µM (inactive) | 13.4 µM (inactive) | 16.5 µM (inactive) | 24.7 µM (inactive) | 16.3 µM (inactive) | 13.9 µM (inactive) | 11.7 µM (inactive) | 13.6 µM (inactive) | 16.3 µM (inactive) | 13.4 µM (inactive) | – | – | 12.4 µM (inactive) | 15.5 µM (inactive) | 21.1 µM (inactive) | 41.9 µM (inactive) | 15.7 µM (inactive) |
| COc1ccc(OC)c2c(=O)cc(-c3ccccc3)[nH]c12 | > 100 µM (inactive) | > 100 µM (inactive) | > 100 µM (inactive) | > 100 µM (inactive) | > 100 µM (inactive) | > 100 µM (inactive) | > 100 µM (inactive) | > 100 µM (inactive) | 7.45 µM (inactive) | > 100 µM (inactive) | > 100 µM (inactive) | > 100 µM (inactive) | – | > 100 µM (inactive) | > 100 µM (inactive) | > 100 µM (inactive) | > 100 µM (inactive) | > 100 µM (inactive) | > 10 µM (inactive) |
| CCCCSc1n/c(=C\c2ccc(N(C)C)cc2)c2nnnn12 | – | > 100 µM (inactive) | > 100 µM (inactive) | > 100 µM (inactive) | > 100 µM (inactive) | > 100 µM (inactive) | > 100 µM (inactive) | > 100 µM (inactive) | > 100 µM (inactive) | > 100 µM (inactive) | > 100 µM (inactive) | > 100 µM (inactive) | > 100 µM (inactive) | > 100 µM (inactive) | > 100 µM (inactive) | > 100 µM (inactive) | > 100 µM (inactive) | > 100 µM (inactive) | – |
| COc1ccc(C(=O)/C=C/c2ccc(OCCCOc3ccc(/C=C/C(=O)c4ccc(OC)c(OC)c4)cc3)cc2)cc1OC | > 100 µM (inactive) | > 100 µM (inactive) | > 100 µM (inactive) | > 100 µM (inactive) | > 100 µM (inactive) | > 100 µM (inactive) | > 100 µM (inactive) | > 100 µM (inactive) | – | > 100 µM (inactive) | > 100 µM (inactive) | > 100 µM (inactive) | > 100 µM (inactive) | > 100 µM (inactive) | > 100 µM (inactive) | > 100 µM (inactive) | > 100 µM (inactive) | > 100 µM (inactive) | > 100 µM (inactive) |
